System: 994946-033-R-J1-PDC complex spheroid viability
Assay: Anticancer human tumor 994946-033-R-J1-PDC patient-derived melanoma cell line growth inhibition [POLQ]
Settings: for IC50: curve of first compound; for viability, T/C: stronger effect = lower value; active = viability on the fitted dose curve at most 10% of control; inactive = the rest
Method in brief: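 Complex spheroid viability model combining PDC tumour cells with endothelial (HUVEC) and MSC stromal cells. Novobiocin, ART-558 or RP6685 were tested singly and in combination with standard and investigational anticancer drugs. Each was titrated in half-log steps from near clinical Cmax, or from 10 microM where Cmax was unknown.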

[1] = second compound 0.0316 µM, first compound 0.0316 µM
[2] = second compound 0.0316 µM, first compound 0.1 µM
[3] = second compound 0.0316 µM, first compound 0.316 µM
[4] = second compound 0.0316 µM, first compound 1 µM
[5] = second compound 0.0316 µM, first compound 3.16 µM
[6] = second compound 0.0316 µM, first compound 10 µM
[7] = second compound 0.1 µM, first compound 0.0316 µM
[8] = second compound 0.1 µM, first compound 0.1 µM
[9] = second compound 0.1 µM, first compound 0.316 µM
[10] = second compound 0.1 µM, first compound 1 µM
[11] = second compound 0.1 µM, first compound 3.16 µM
[12] = second compound 0.1 µM, first compound 10 µM
[13] = second compound 0.316 µM, first compound 0.0316 µM
[14] = second compound 0.316 µM, first compound 0.1 µM
[15] = second compound 0.316 µM, first compound 0.316 µM
[16] = second compound 0.316 µM, first compound 1 µM
[17] = second compound 0.316 µM, first compound 3.16 µM
[18] = second compound 0.316 µM, first compound 10 µM
[19] = second compound 1 µM, first compound 0.0316 µM
[20] = second compound 1 µM, first compound 0.1 µM
[21] = second compound 1 µM, first compound 0.316 µM
[22] = second compound 1 µM, first compound 1 µM
[23] = second compound 1 µM, first compound 3.16 µM
[24] = second compound 1 µM, first compound 10 µM
[25] = second compound 3.16 µM, first compound 0.0316 µM
[26] = second compound 3.16 µM, first compound 0.1 µM
[27] = second compound 3.16 µM, first compound 0.316 µM
[28] = second compound 3.16 µM, first compound 1 µM
[29] = second compound 3.16 µM, first compound 3.16 µM
[30] = second compound 3.16 µM, first compound 10 µM
[31] = second compound 10 µM, first compound 0.0316 µM
[32] = second compound 10 µM, first compound 0.1 µM
[33] = second compound 10 µM, first compound 0.316 µM
[34] = second compound 10 µM, first compound 1 µM
[35] = second compound 10 µM, first compound 3.16 µM
[36] = second compound 10 µM, first compound 10 µM
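Note: spheroids exposed to drugs for 7 days.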
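Throughout, for viability, T/C: 100% = DMSO vehicle treated spheroids.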

COc1cccc2c1C(=O)c1c(O)c3c(c(O)c1C2=O)CC(O)(C(=O)CO)CC3OC1CC(N)C(O)C(C)O1 (stereo not given) + Nc1ccc(C#CCN(C(=O)Cc2ncc(C(F)(F)F)cc2C(F)(F)F)c2ccc(F)cc2)nn1
inactive: viability, T/C [1] 39.1% | viability, T/C [7] 47.5% | viability, T/C [8] 11.3% | viability, T/C [13] 38% | viability, T/C [14] 13.6% | viability, T/C [19] 47.9% | viability, T/C [20] 10% | viability, T/C [25] 32.4% | viability, T/C [26] 13.9% | viability, T/C [31] 35.3% | viability, T/C [32] 14.7%
active: viability, T/C [2] 8.96% | viability, T/C [3] 4.51% | viability, T/C [4] 0.95% | viability, T/C [5] 0.91% | viability, T/C [6] 1.45% | viability, T/C [9] 7.5% | viability, T/C [10] 1.92% | viability, T/C [11] 1.44% | viability, T/C [12] 1.04% | viability, T/C [15] 5.83% | viability, T/C [16] 0.57% | viability, T/C [17] 1.8% | viability, T/C [18] 1.29% | viability, T/C [21] 4.77% | viability, T/C [22] 0.51% | viability, T/C [23] 1.35% | viability, T/C [24] 0.99% | viability, T/C [27] 4.86% | viability, T/C [28] 1.22% | viability, T/C [29] 1.11% | viability, T/C [30] 1% | viability, T/C [33] 3.59% | viability, T/C [34] 1.41% | viability, T/C [35] 0.94% | viability, T/C [36] 1.07%
< 0.0316 µM: IC50 (second compound 0.0316 µM) | IC50 (second compound 0.1 µM) | IC50 (second compound 0.316 µM) | IC50 (second compound 1 µM) | IC50 (second compound 3.16 µM) | IC50 (second compound 10 µM)

O=C(Nc1ccc(O)c(NS(=O)(=O)c2ccc(F)cc2)c1)c1ccc(-c2ccccc2)cc1 + Nc1ccc(C#CCN(C(=O)Cc2ncc(C(F)(F)F)cc2C(F)(F)F)c2ccc(F)cc2)nn1
7.55 µM: IC50 (second compound 0.316 µM)
7.1 µM: IC50 (second compound 0.0316 µM)
4.79 µM: IC50 (second compound 0.1 µM)
8.49 µM: IC50 (second compound 1 µM)
9.09 µM: IC50 (second compound 3.16 µM)
> 10 µM: IC50 (second compound 10 µM)
inactive: viability, T/C [1] 79.4% | viability, T/C [2] 95.7% | viability, T/C [3] 92.9% | viability, T/C [4] 77.1% | viability, T/C [5] 84.1% | viability, T/C [6] 35.6% | viability, T/C [7] 104% | viability, T/C [8] 94.1% | viability, T/C [9] 100% | viability, T/C [10] 111% | viability, T/C [11] 59.8% | viability, T/C [12] 32.7% | viability, T/C [13] 88.2% | viability, T/C [14] 134% | viability, T/C [15] 97.6% | viability, T/C [16] 89.9% | viability, T/C [17] 93.1% | viability, T/C [18] 36.7% | viability, T/C [19] 98.1% | viability, T/C [20] 74.2% | viability, T/C [21] 133% | viability, T/C [22] 117% | viability, T/C [23] 92.8% | viability, T/C [24] 42.9% | viability, T/C [25] 114% | viability, T/C [26] 84.7% | viability, T/C [27] 98.4% | viability, T/C [28] 94.4% | viability, T/C [29] 67.4% | viability, T/C [30] 48.8% | viability, T/C [31] 78.7% | viability, T/C [32] 78.4% | viability, T/C [33] 79% | viability, T/C [34] 96.5% | viability, T/C [35] 76% | viability, T/C [36] 53.1%

CNCc1ccc(-c2[nH]c3cc(F)cc4c3c2CCNC4=O)cc1 + COC1C(OC(N)=O)C(O)C(Oc2ccc3c(O)c(NC(=O)c4ccc(O)c(CC=C(C)C)c4)c(=O)oc3c2C)OC1(C)C
inactive: viability, T/C [1] 114% | viability, T/C [2] 93.7% | viability, T/C [3] 96% | viability, T/C [4] 96.3% | viability, T/C [5] 101% | viability, T/C [6] 70.9% | viability, T/C [7] 107% | viability, T/C [8] 119% | viability, T/C [9] 83% | viability, T/C [10] 114% | viability, T/C [11] 94.4% | viability, T/C [12] 93.3% | viability, T/C [13] 117% | viability, T/C [14] 126% | viability, T/C [15] 105% | viability, T/C [16] 117% | viability, T/C [17] 107% | viability, T/C [18] 61.1% | viability, T/C [19] 107% | viability, T/C [20] 91.4% | viability, T/C [21] 88.4% | viability, T/C [22] 110% | viability, T/C [23] 109% | viability, T/C [24] 61.6% | viability, T/C [25] 92.9% | viability, T/C [26] 95.2% | viability, T/C [27] 106% | viability, T/C [28] 112% | viability, T/C [29] 99.2% | viability, T/C [30] 72.8% | viability, T/C [31] 117% | viability, T/C [32] 94.6% | viability, T/C [33] 80.3% | viability, T/C [34] 85.1% | viability, T/C [35] 94.5% | viability, T/C [36] 64.8%
> 10 µM: IC50 (second compound 0.0316 µM) | IC50 (second compound 0.1 µM) | IC50 (second compound 0.316 µM) | IC50 (second compound 1 µM) | IC50 (second compound 3.16 µM) | IC50 (second compound 10 µM)

COc1ccc([C@@H](O)c2cc(-c3ncnc4cc(N5CCOCC5)ccc34)c(F)cc2Cl)nn1 + COC1C(OC(N)=O)C(O)C(Oc2ccc3c(O)c(NC(=O)c4ccc(O)c(CC=C(C)C)c4)c(=O)oc3c2C)OC1(C)C
4.18 µM: IC50 (second compound 0.0316 µM)
7.07 µM: IC50 (second compound 3.16 µM)
9.07 µM: IC50 (second compound 10 µM)
6.13 µM: IC50 (second compound 1 µM)
2.2 µM: IC50 (second compound 0.1 µM)
inactive: viability, T/C [1] 101% | viability, T/C [2] 83% | viability, T/C [3] 83.5% | viability, T/C [4] 78.8% | viability, T/C [5] 49.4% | viability, T/C [6] 36.5% | viability, T/C [7] 107% | viability, T/C [8] 74.5% | viability, T/C [9] 93% | viability, T/C [10] 73.5% | viability, T/C [11] 36.7% | viability, T/C [12] 41.8% | viability, T/C [13] 93.3% | viability, T/C [14] 107% | viability, T/C [15] 85.8% | viability, T/C [16] 64% | viability, T/C [17] 62.3% | viability, T/C [18] 39.6% | viability, T/C [19] 128% | viability, T/C [20] 90.6% | viability, T/C [21] 70.6% | viability, T/C [22] 68.7% | viability, T/C [23] 76% | viability, T/C [24] 39.5% | viability, T/C [25] 91.7% | viability, T/C [26] 88.7% | viability, T/C [27] 96.1% | viability, T/C [28] 70.5% | viability, T/C [29] 62.6% | viability, T/C [30] 44.9% | viability, T/C [31] 103% | viability, T/C [32] 90.4% | viability, T/C [33] 71.9% | viability, T/C [34] 65.5% | viability, T/C [35] 60% | viability, T/C [36] 47.4%
4.88 µM: IC50 (second compound 0.316 µM)

CC1COCCN1c1cc(-c2ccnn2C)c2ccnc(-c3ccn[nH]3)c2n1 (stereo not given) + Cc1cccc(N(C)C(=O)C2C(O)CCN2c2nc(C)cc(C(F)(F)F)c2C#N)c1
0.0603 µM: IC50 (second compound 0.0316 µM)
0.0882 µM: IC50 (second compound 10 µM)
0.057 µM: IC50 (second compound 1 µM)
active: viability, T/C [24] 7.27% | viability, T/C [29] 11% | viability, T/C [30] 6.95%
0.0536 µM: IC50 (second compound 0.1 µM)
inactive: viability, T/C [1] 77.7% | viability, T/C [2] 27.9% | viability, T/C [3] 13% | viability, T/C [4] 24.4% | viability, T/C [5] 16.6% | viability, T/C [6] 8.57% | viability, T/C [7] 69.1% | viability, T/C [8] 28.4% | viability, T/C [9] 14.2% | viability, T/C [10] 31.3% | viability, T/C [11] 15.1% | viability, T/C [12] 7.78% | viability, T/C [13] 72.5% | viability, T/C [14] 18.6% | viability, T/C [15] 25.1% | viability, T/C [16] 12.4% | viability, T/C [17] 15.7% | viability, T/C [18] 7.71% | viability, T/C [19] 63.4% | viability, T/C [20] 33.9% | viability, T/C [21] 29.9% | viability, T/C [22] 16% | viability, T/C [23] 13.6% | viability, T/C [25] 49% | viability, T/C [26] 35.3% | viability, T/C [27] 18.5% | viability, T/C [28] 12.7% | viability, T/C [31] 81.8% | viability, T/C [32] 42% | viability, T/C [33] 30.7% | viability, T/C [34] 21.6% | viability, T/C [35] 15.3% | viability, T/C [36] 8.65%
< 0.0316 µM: IC50 (second compound 3.16 µM)
0.0512 µM: IC50 (second compound 0.316 µM)
